Patent publication US20120231042A1, “Pharmaceutical Formulation For Producing Rapidly Disintegrating Tablets” (BASF SE, priority 2011, published 2012)

Test: Film formation test
Type: physicochemical
Conditions: assessed visually; for Clear film / Notes (film-forming classification): 15% by weight solution in water, dried at 45° C. for 4 hours; for Structure formed after drying (film-forming property): 15% solution dried 4 hours at 45° C., statement in description
Experimental: In various embodiments, to determine the film-forming property, 30.0 g of a 15% strength by weight solution of the sugar or sugar alcohol in water are first prepared at 23° C. This solution is poured out onto glass plates with an indentation (dimension: 20 cm×6.5 cm, indentation 0.3 cm) and dried for 4 hours at 45° C. and then assessed visually. Measurement can take place in ambient air. The ambient air here has a relative humidity of about 40% at 23° C. Drying can take place for example, on the heating plate of a film-drawing instrument. A suitable film-drawing instrument is for example a commercial instrument such as the COATMASTER 509 MC.
Products which are present after the drying operation as a clear film or covering are referred to as “film-forming” If crystals are visible and the mass appears powdery, the substances are classified as “non-film-forming”
To determine the film-forming property, firstly, at 23° C., 30.0 g of a 15% strength by weight solution of the sugar or sugar alcohol in water were prepared. This solution was poured onto glass plates with an indentation (dimension: 20 cm×6.5 cm, indentation 0.3 cm) and dried at 45° C. for 4 hours and then assessed visually. […] Drying was carried out on a heating plate of the film-drawing instrument COATMASTER 509 MC (Erichsen).

| Compound | Clear film | Notes (film-forming classification) | Structure formed after drying (film-forming property) |
| --- | --- | --- | --- |
| OC[C@@H](O)[C@H](O)[C@@H](O)CO [Xylitol] | No | Crystals; non-film-forming | crystals or a powdery structure |
| Palatinit | Yes | Film-forming | clear film/covering |
| OC[C@@H](O)[C@@H](O)CO [Erythritol] | No | Crystals; non-film-forming | crystals or a powdery structure |
| OC[C@H]1O[C@@H](O[C@H]2[C@H](O)[C@@H](O)C(O)O[C@@H]2CO)[C@H](O)[C@@H](O)[C@H]1O (stereo partly drawn) [lactose] | – | – | clear film/covering |
| OC[C@H]1O[C@H](O[C@H]2O[C@H](CO)[C@@H](O)[C@H](O)[C@H]2O)[C@H](O)[C@@H](O)[C@@H]1O [trehalose] | – | – | clear film/covering |
| OC[C@H]1O[C@@](CO)(O[C@H]2O[C@H](CO)[C@@H](O)[C@H](O)[C@H]2O)[C@@H](O)[C@@H]1O [sucrose] | – | – | clear film/covering |
| OC[C@@H](O)[C@@H](O)[C@H](O)[C@H](O)CO [Mannitol] | No | Crystals; non-film-forming | crystals or a powdery structure |
| OC[C@@H](O)[C@@H](O[C@H]1O[C@H](CO)[C@@H](O)[C@H](O)[C@H]1O)[C@H](O)[C@@H](O)CO [Maltitol] | Yes | Film-forming | clear film/covering |
| OC[C@@H](O)[C@@H](O)[C@H](O)[C@@H](O)CO [Sorbitol] | Yes | Film-forming | clear film/covering |
| OC[C@@H](O)[C@@H](O[C@@H]1O[C@H](CO)[C@H](O)[C@H](O)[C@H]1O)[C@H](O)[C@@H](O)CO [Lactitol] | Yes | Film-forming | clear film/covering |
